We go through 2 compounds from patent US20140186872A1, “BISACODYL AND ITS ANALOGUES AS DRUGS FOR USE IN THE TREATMENT OF CANCER” (CENTRE NATIONAL DE LA RECHERCHE SCIENTIFIQUE- CNRS, priority 2011, published 2014).

Series [1] deals with proliferating TG1 glioblastoma stem cells. Kind of series: ATP-Glo (Cell Titer Glo) cell viability, dose/response, proliferating TG1 cells. It is filed as cell-based, human. The settings on record: for effect on survival of proliferating TG1 cells: own culture medium. The method, then: The TG1 proliferating cells correspond to cells for which medium is renewed regularly, twice weekly.
The proliferating cells were put back in 1 mL of fresh NS34 medium, dissociated mechanically by pipetting up and down 100 times with a P1000 micropipette preset to 400 μl and counted with Trypan Blue, after dilution in fresh NS34 medium, to obtain a final suspension of 6×10^5 cells/mL.
(§1) 50 μl of solution containing cells was deposited per well in a 96-well plate (Greiner #655090).
(§2) The test compounds, in solution of 100% of DMSO were diluted in culture medium: in the absence of DMSO (medium 0% DMSO) or in the presence of 2% of DMSO (medium 2% DMSO) at concentrations of 200 μM, 100 μM, 80 μM, 60 μM, 40 μM, 20 μM, 10 μM and 2 μM. For all these dilutions the final concentration in DMSO was 2% (see Table 1 below; volumes shown make it possible to construct dose/response curves, in triplicate, for 1 compound on a 96-well plate—FIG. 1)
50 μL of solution of compound was added at the concentrations specified above to 50 μL of cells in the plate (FIG. 1) (Final concentration of compounds in contact with the cells: 100 μM, 50 μM, 40 μM, 30 μM, 20 μM, 10 μM, 5 μM, 1 μM (in 1% of final DMSO). Final concentration of positive control: 50 μM in 1% of final DMSO. Final concentration of negative control: 1% final DMSO). […]
(§3) The test of cell viability was carried out using the Cell Titer Glo kit (Promega #G7571). After thawing of the Cell Titer Glo reagent (1 Buffer vial+1 Substrate vial per plate) protected from the light, the contents of the Buffer vial were transferred to the Substrate vial. 100 μl of Cell Titer Glo reagent was deposited on the cells treated with the compounds.
(§4) The results, which were given for each well in strokes per second (sps), were converted to percentage cell survival relative to the control 1% of DMSO, which was fixed at 100%.
(§5) The EC50 was determined as the concentration that gives 50% of the response.
(§6) Glioblastoma (WHO grade IV glioma) stem cells (TG1, TG16 and OB1) were derived from tumor samples of 3 patients at Sainte Anne Hospital (Paris, France), as previously described (48) and expanded as neurosphere cultures. In continuously proliferating cultures, neurospheres were mechanically dissociated into a single-cell suspension twice a week with 90% renewal of their culture medium. Quiescent glioblastoma stem cells were obtained by non-renewal of the culture medium for 9-16 days following cell seeding. The non-proliferating state was assessed by decreased ability of the cells to incorporate EdU (5-ethynyl-2′-deoxyuridine) using the Click-iT™ EdU Flow Cytometry Assay Kit (Invitrogen, France) according to the manufacturer's instructions. […]
(§7) Confirmed hit compounds from the primary and secondary screens were purchased from Prestwick Chemical and dissolved in DMSO to obtain 10 mM concentrated stock solutions. Hit compound validation was obtained through dose-response curves on the viability of TG1 glioblastoma stem cells under the same experimental conditions (cell density, treatment duration) as described for the primary and secondary screens. Each compound was tested in triplicate in at least three independent experiments on proliferating and quiescent glioblastoma stem TG1 cells.
(§8) The EC50 value was determined for each compound by fitting the data points according to the following equation: […]
(§9) where y represents the expected response (expressed as a percentage of cell viability), x is the chemical compound concentration, Smax and Smin are the maximum and minimum viability responses recorded, respectively, and n is the Hill coefficient. Curve fitting was performed using the Microsoft Excel Solver component.
In general terms: In ATP-based viability assays light output follows the ATP content of the culture.

Series [2] concerns quiescent TG1 glioblastoma stem cells. Kind of series: ATP-Glo (Cell Titer Glo) cell viability, dose/response, quiescent TG1 cells. It is filed as cell-based, human. Conditions: for EC50: Homo sapiens, quiescent TG1 cells, ATP-Glo, read-out: concentration leading to 50% of effect (EC50); for EC50 / effect on survival of quiescent TG1 cells (words) / cytotoxicity to quiescent TG1 cells: 24 h; for effect on survival of quiescent TG1 cells (words): own conditioned medium; for cytotoxicity to quiescent TG1 cells: 10 μM. The method, then: The TG1 cells were put into quiescence by keeping the cells in culture without changing the medium from 9 to 16 days. The state of quiescence was verified by non-incorporation of nucleotides into the DNA of the cells (see example 9).
The quiescent cells were put back in 1 mL of conditioned medium, dissociated mechanically by pipetting up and down 100 times with a P1000 micropipette preset to 400 μl and counted with Trypan Blue, after dilution in conditioned medium, to obtain a final suspension of 8.10^5 cells/mL.
as §1, §2
50 μL of solution of compound was added at the concentrations specified above to 50 μL of cells in the plate (FIG. 1) (Final concentration of compounds in contact with the cells: 100 μM, 50 μM, 40 μM, 30 μM, 20 μM, 10 μM, 5 μM, 1 μM (in 1% of final DMSO). Final concentration of positive control: 50 μM in 1% of final DMSO. Final concentration of negative control: 1% final DMSO).
The cells were incubated for 23 to 24 hours at 37° C. in an incubator in the presence of 5% CO2 (under humid atmosphere at 95% provided by a reservoir filled with distilled water).
as §3, §4, §5, §6, §7, §8, §9

In series [3] the test system is human fetal neural stem cells (f-NSC cells). Kind of series: ATP-Glo cell viability on fetal neural stem cells. The series is classed as cell-based.
The test system of series [4] is human primary astrocytes (HA cells). Kind of series: ATP-Glo cell viability on human astrocytes. It is filed as cell-based. From the text:
Primary human astrocytes (HA cells) were expanded in AM Medium (both from ScienCell Research Laboratories, Carlsbad Calif.) according to the manufacturer's instructions.

A short description of series [5]: Stability of the test compounds in the culture medium (HPLC). The series is classed as physicochemical. Conditions: for half-life at 10 μM: 1% DMSO, 37° C., HPLC. The method, then:
A mass m was weighed with an analytical balance and a volume V of DMSO was added.
The solution of the compound at 10 mM was diluted to 1/10, still in DMSO.
The latter solution was diluted to 1/100 in medium in order to obtain a final concentration of 10 μM and 1% of DMSO.
After homogenizing (2 min), 150 μl was taken and was mixed with 150 μl of acetonitrile to precipitate the proteins present in the medium, which corresponds to a dilution to ½.
The mixture was vortexed for 1 min and then centrifuged for 10 min at 15000 g.
The supernatant was again diluted to ½ with 1 volume of milliQ water and then injected in HPLC.
The same treatment was carried out at times 2 h, 4 h, 6 h and 24 h.
The solutions were analysed in HPLC using a Gilson chain equipped with a diode array detector and of an automatic injector with an injection loop of 20 μl.
10 μM solutions of Bisacodyl and DDPM were prepared in proliferating or quiescent glioblastoma stem cell culture medium in the presence of 1% DMSO. Following protein precipitation (with acetonitrile), samples were analyzed by HPLC after 0, 2, 4, 6 and 24 h of incubation at 37° C.

Series [6] relates to U-87 MG glioblastoma cell line. Kind of series: ATP-Glo cell viability on U-87 MG cells. Conditions: for cytotoxic effect on U-87 MG cells: 24 h.
Protocol: (§10) The cells were passed 2 or 3 days before the experiment. On that very day, the cells are detached with trypsin according to the above protocol, then centrifuged for 10 minutes at 800 rpm.
(§11) The supernatant was removed and the cells were resuspended in culture medium, then counted and finally diluted to give a final suspension of 10^6 cells/mL.
(§12) 7 mL of cellular suspension at 10^6 cells/mL was prepared for each test compound.
The glioblastoma U-87 MG cell line was purchased from ATCC and expanded in Eagle's Minimum Essential Medium (EMEM) (ATCC) supplemented with 10% fetal bovine serum (FBS) (Invitrogen, France) and 1% penicillin/streptomycin (Invitrogen, France).
The pH of the medium solution was then adjusted to values varying between 7.4 and 6.0 with 1M HCl or a sodium acetate buffer (0.1 M pH=4). The culture media were placed in a CO2 cell culture incubator settled to 5% CO2 and 37° C. for 1 hour. The pH was measured again and re-adjusted to the expected values if necessary and culture media were filter-sterilized (0.22 μm filter) prior to their use. The toxicity of DDPM (10 or 100 μM) on proliferating and quiescent TG1 cells was then assessed under the same conditions as those described in the previous section. pH dependency of lead compounds was also assessed for the glioblastoma U-87 MG cell line and on normal fetal neural stem cells and primary human astrocytes in their respective culture media (adjusted to pH 7.4 or 6.2) with HCl (1M) or a sodium acetate buffer (0.1 M pH=4).
Another series has as its system HEK293 cells. Kind of series: ATP-Glo cell viability on HEK 293 cells.
In series [7] the test system is caspase 3/7 activity in proliferating and quiescent TG1 cells. Kind of series: Apo-ONE Homogeneous Caspase-3/7 Assay in TG1 cells. The series is classed as cell-based, human. The method, then:
Proliferating (30 000 cells/well) and quiescent (40 000 cells/well) TG1 cells were suspended in freshly prepared culture medium (pH=7.3) or acidified freshly prepared culture medium (pH=6.4) and treated with increasing concentrations of the lead compounds for 24 hours. Following treatment, apoptosis was measured with the Apo-ONE Homogeneous Caspase-3/7 Assay from Promega according to the manufacturer's instructions. Staurosporine (Sigma, Aldrich) and culture medium were used as positive and negative controls, respectively.

Series [8] deals with quiescent TG1 glioblastoma stem cells. Description: ATP-Glo (Cell Titer Glo) cell viability, dose/response, quiescent TG1 cells. The series is classed as cell-based, human. The settings on record: treated 24 h in freshly prepared non-conditioned medium, versus own medium.
The mark [9] stands for this setting: 100 μM, acidification with sodium acetate buffer, versus HCl.

Each structure is given as a SMILES string. Like-named read-outs stand apart in the source and are kept apart here.

Protocol for HEK293 cells: as §10, §11, §12
Human Embryonic Kidney 293 cells (HEK 293 cells) were expanded in Minimum Essential Medium (MEM) with 2 mM L-Glutamine, 100 UI/ml-100 μg/ml Penicillin/Streptomycin and 10% FBS.

What is called half-life is the time needed for the level to fall by half in the phase considered. As for `CC(=O)Oc1ccc(C(c2ccc(OC(C)=O)cc2)c2ccccn2)cc1` [Compound 1, Bisacodyl], the “effect on survival of proliferating TG1 cells” value in [1] (24 h) is recorded as “not on TG1 cells proliferating continuously”. In series [2], the EC50 was determined as 1000 nM. Also, the “effect on survival of quiescent TG1 cells (words)” value in [2] (listed as Bisacodyl) was “only active on TG1 cells in quiescence”; in series [2] (listed as bisacodyl) it was “more selective effects”. Further, in series [3], the “effect on survival / toxicity, f-NSC cells” value is “does not display any toxicity”. Besides, the “cell survival of f-NSC cells” value in series [3] (concentrations of compound up to 100 μM) is reported as “over 90%”. The “toxicity for HA cells” value in [4] is recorded as “does not display any toxicity”. The Emax in series [4] (Homo sapiens, Astrocyte, not due to cell death, read-out: maximum effect on HA cells: reduction of ATP levels) was 30%. Besides, the “survival of human astrocytes (HA)” value in series [4] (concentrations above 10 μM) came out at 60%. Besides, the half-life at 10 μM is 2 h in [5] (read-out: half-life in the medium of the proliferating cells (converted)) and 4 h in series [5] (quiescent glioblastoma stem cell culture medium (no cells), read-out: half-life in the medium of the quiescent cells (converted)). For the same compound, in series [6] (concentrations between 10 and 100 μM), the “survival of U-87 MG cells” value is 90%. Moreover, the “toxicity for HEK293 cells” value in the series with HEK293 cells is “does not display any toxicity”. Further, the entries for the “survival of HEK293 cells” value in the series with HEK293 cells (10 μM) and with HEK293 cells (100 μM) were 100% and 80%, respectively.
On to `Oc1ccc(C(c2ccc(O)cc2)c2ccccn2)cc1` [Compound 2, 4,4′-(Pyridin-2-ylmethylene)diphenol], for which, in series [1] (10 μM, 24 h, acidic medium (HCl)), the “survival of proliferating TG1 cells” value was “also decreased”. For the same compound, the “effect on proliferating TG1 cells” value in series [1] (setting [9]) is reported as “more pronounced”. In series [1] (NS34 medium pH 7.35 or 6.2, 24 or 72 h, Example 13), the “survival of TG1 glioblastoma cancer stem cells (ATP level)” value was “decreases the survival”. In addition, the “effect on survival of proliferating TG1 cells” value in series [1] (24 h) is given as “a little more marked”; in series [1] (24 h, listed as DDPM) it was “minor effect”. Further, the “cytotoxic activity on proliferating TG1 cells after media exchange” value in [1] (treated 24 h in conditioned quiescent cell medium, versus own medium) is “more pronounced cytotoxic activity”. In addition, the entries for the “cytotoxicity to quiescent TG1 cells” value in [2] (pH values above 7) and in series [2] (slightly acidic conditions (HCl)) were “little or no effect” and “cytotoxic”, respectively. Besides, the “effect on quiescent TG1 cells” value in series [2] (setting [9]) was “more pronounced”. Further, the EC50 in series [2] was ~1000 nM. The entries for the “effect on survival of quiescent TG1 cells (words)” value in series [2] and in [2] (listed as DDPM) were “effect comparable to bisacodyl” and “high cytotoxicity”, respectively. Further, the “effect on ATP levels of human astrocytes” value in [4] (pH 7.4 versus 6.2, related to cell death) is listed as “pH dependent reduction of ATP levels”. Also, the “change in concentration in the culture media (stability)” value in series [5] (proliferating and quiescent culture medium, up to 24 h) is “No change”. The “caspase 3/7 activity” value in series [7] (pH 6.4, 24 h, proliferating and quiescent TG1 cells) is “stimulates caspase 3/7 activity in a dose-dependent manner”. In [7] (physiological pH (pH 7.3), 24 h), the “pro-apoptotic effect (caspase 3/7 activity)” value is listed as “not observed”. Moreover, the “effect on quiescent TG1 cells after media exchange” value in [8] is reported as “significantly reduced”. Besides, the “percentage of U-87 cell death” value in [6] (acidic pH adjusted with sodium acetate buffer, versus HCl) is “even higher”. For the same compound, the “cytotoxic effect on U-87 MG cells” value in series [6] (pH 6.2 set with 1M HCl, versus physiological pH) is “significantly higher”; in series [6] (physiological pH), “no cytotoxic effect”.
